Measured values published in US12157746B2, “Tetrahydro-1H-pyrazino[2,1-a]isoindolylquinoline compounds for the treatment of autoimmune disease” (F. HOFFMANN-LA ROCHE AG, priority 2018, dated 2024).
pIC50: −log10 of the molar value.

These compounds were tested against T1, human TLR8 (Homo sapiens, UniProt Q9NR97) (assay: HEK293-Blue-hTLR-8 cells assay). Settings: HEK293-Blue-hTLR8 cells, R848 stimulation, 20 hrs, SEAP reporter; read-out: HEK/hTLR8 IC50.
T1 sequence (Q9NR97 27-1041): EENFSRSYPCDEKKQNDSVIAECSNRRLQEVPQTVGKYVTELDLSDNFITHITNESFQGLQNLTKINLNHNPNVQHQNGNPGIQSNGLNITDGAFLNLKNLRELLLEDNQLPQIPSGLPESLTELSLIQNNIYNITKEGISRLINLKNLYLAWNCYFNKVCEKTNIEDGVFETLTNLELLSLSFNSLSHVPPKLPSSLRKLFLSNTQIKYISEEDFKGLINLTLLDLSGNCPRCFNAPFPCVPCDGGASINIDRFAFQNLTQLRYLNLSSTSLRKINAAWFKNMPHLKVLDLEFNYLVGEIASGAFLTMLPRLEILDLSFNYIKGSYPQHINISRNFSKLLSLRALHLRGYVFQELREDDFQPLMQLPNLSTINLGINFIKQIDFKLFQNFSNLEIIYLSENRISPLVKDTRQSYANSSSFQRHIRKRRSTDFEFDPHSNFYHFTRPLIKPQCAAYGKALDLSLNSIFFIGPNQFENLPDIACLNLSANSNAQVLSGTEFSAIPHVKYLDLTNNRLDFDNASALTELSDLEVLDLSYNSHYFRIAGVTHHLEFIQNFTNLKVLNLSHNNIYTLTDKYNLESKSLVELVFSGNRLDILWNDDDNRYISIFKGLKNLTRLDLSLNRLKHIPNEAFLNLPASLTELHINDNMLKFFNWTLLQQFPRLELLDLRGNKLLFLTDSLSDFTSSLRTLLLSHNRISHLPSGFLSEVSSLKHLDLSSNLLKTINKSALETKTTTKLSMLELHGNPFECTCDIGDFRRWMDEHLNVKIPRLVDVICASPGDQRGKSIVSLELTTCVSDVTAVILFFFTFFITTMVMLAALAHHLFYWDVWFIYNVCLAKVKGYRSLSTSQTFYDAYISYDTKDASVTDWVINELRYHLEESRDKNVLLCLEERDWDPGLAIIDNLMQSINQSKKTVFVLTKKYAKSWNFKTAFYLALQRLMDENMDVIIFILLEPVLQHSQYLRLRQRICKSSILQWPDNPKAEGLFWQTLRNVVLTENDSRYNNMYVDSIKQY
Type: cell-based
How it was run: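 Antagonism read out in HEK293-Blue-hTLR8 cells carrying an NF-κB/AP-1-driven SEAP reporter, stimulated with R848 (10 μL of 60 uM stock added) alongside serially diluted compound (1% DMSO), 20 h at 37° C. Supernatant SEAP measured with QUANTI-Blue after 2 h at 37° C, absorbance at 620-655 nm.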
Compound `C[C@@H]1CN(c2ccc(C#N)n3nccc23)C[C@@H]2c3ccc(N4CCNCC4)cc3CN12` [Example 5, 4-[(4R,10bS)-4-methyl-8-piperazin-1-yl-3,4,6,10b-tetrahydro-1H-pyrazino[2,1-a]isoindol-2-yl]pyrazolo[1,5-a]pyridine-7-carbonitrile] has a pIC50 greater than 8.49. `CO[C@@H]1CN(c2ccc3c(c2)CN2[C@H](C)CN(c4ccc(C#N)n5nccc45)C[C@H]32)CC[C@H]1N` [Example 104, 4-[(4R,10bS)-8-[(3R,4R)-4-amino-3-methoxy-1-piperidyl]-4-methyl-3,4,6,10b-tetrahydro-1H-pyrazino[2,1-a]isoindol-2-yl]pyrazolo[1,5-a]pyridine-7-carbonitrile] gave a pIC50 of 8.49. With `C[C@@H]1CN(c2ccc(C#N)c3ncccc23)C[C@@H]2c3ccc(NC4CNCCOC4)cc3CN12` (stereo partly drawn) [Example 56, 5-[(4R,10bS)-4-methyl-8-(1,4-oxazepan-6-ylamino)-3,4,6,10b-tetrahydro-1H-pyrazino[2,1-a]isoindol-2-yl]quinoline-8-carbonitrile] the pIC50 was greater than 8.49. Work on `C[C@@H]1CN(c2ccc(C#N)n3nccc23)C[C@@H]2c3ccc(N[C@H]4CNC[C@H]4F)cc3CN12` [Example 98, 4-[(4R,10bS)-8-[[(3S,4R)-4-fluoropyrrolidin-3-yl]amino]-4-methyl-3,4,6,10b-tetrahydro-1H-pyrazino[2,1-a]isoindol-2-yl]pyrazolo[1,5-a]pyridine-7-carbonitrile] yielded a pIC50 of 8.06. `CO[C@H]1CN(c2ccc3c(c2)CN2[C@H](C)CN(c4ccc(C#N)c5ncccc45)C[C@H]32)C[C@@H]1N` (relative stereo) [Example 16, 5-[(4R,10bS)-8-[trans-3-amino-4-methoxy-pyrrolidin-1-yl]-4-methyl-3,4,6,10b-tetrahydro-1H-pyrazino[2,1-a]isoindol-2-yl]quinoline-8-carbonitrile] gave a pIC50 greater than 8.49.
